Measured values: US20230167073A1 (Teijin Pharma Limited, priority 2020, published 2023)

What follows are compounds tested against T1, Human TRPC6 (Homo sapiens, UniProt Q9Y210) (assay: Evaluation of TRPC6 channel inhibitory activity (1), FLIPR Calcium 5 Assay Kit, OAG stimulation (Compound Nos. 1-1293)). Conditions: Human TRPC6 stably-expressing cells, OAG 30 μM, FLIPR Calcium 5 Assay Kit; read-out: Inhibitory activity (pIC50 class) (converted).
T1 construct: expressed in transfected cells
T1 sequence (Q9Y210 1-931): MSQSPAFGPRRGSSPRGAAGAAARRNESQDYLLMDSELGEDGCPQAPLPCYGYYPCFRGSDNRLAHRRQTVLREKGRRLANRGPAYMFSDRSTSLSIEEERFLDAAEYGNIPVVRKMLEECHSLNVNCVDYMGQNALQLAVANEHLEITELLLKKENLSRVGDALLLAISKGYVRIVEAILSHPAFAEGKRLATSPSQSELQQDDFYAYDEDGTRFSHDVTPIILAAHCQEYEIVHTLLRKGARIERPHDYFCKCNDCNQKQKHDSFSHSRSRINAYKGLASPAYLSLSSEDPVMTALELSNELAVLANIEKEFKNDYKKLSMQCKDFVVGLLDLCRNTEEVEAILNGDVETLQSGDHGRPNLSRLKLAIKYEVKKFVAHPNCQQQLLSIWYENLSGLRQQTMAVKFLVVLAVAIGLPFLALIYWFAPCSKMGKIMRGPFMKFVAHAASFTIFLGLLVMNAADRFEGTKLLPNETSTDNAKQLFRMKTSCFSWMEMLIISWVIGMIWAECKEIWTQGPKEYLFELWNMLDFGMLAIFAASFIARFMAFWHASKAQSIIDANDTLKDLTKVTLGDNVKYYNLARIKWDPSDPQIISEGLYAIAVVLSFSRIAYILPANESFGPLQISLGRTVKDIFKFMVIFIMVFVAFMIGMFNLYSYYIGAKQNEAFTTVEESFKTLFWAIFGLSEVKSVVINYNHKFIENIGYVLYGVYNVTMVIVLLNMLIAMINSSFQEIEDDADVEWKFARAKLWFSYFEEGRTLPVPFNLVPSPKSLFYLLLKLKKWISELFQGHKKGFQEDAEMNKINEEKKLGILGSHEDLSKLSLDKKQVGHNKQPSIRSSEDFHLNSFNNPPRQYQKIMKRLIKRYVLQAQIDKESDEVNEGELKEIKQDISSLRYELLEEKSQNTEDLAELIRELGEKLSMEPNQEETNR
Assay type: cell-based
In short: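 Cells stably expressing human TRPC6, plated 24 h before, were loaded 30 min with Calcium 5 dye plus probenecid in HEPES-HBSS. Compound was added 20 min before OAG (30 μM final) and fluorescence tracked on FLIPR. Inhibition normalised to no-compound and no-compound/no-OAG wells; pIC50 from four-parameter fit, reported as +/++/+++ categories.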
An IC50 of 10 to 1000 nM was found for Cc1cc(Oc2cc(C#N)ccc2-c2ncc([C@H](O)CN)cn2)cc(N2C[C@@H]3C[C@H]2CO3)n1 [compound 528, 4-[5-[(1S)-2-amino-1-hydroxyethyl]pyrimidin-2-yl]-3-[2-methyl-6-[(1S,4S)-2-oxa-5-azabicyclo[2.2.1]heptan-5-yl]pyridin-4-yl]oxybenzonitrile] in this work.
An IC50 of less than 10 nM was found for Cc1cc(Oc2cc(C#N)ccc2-c2ccc([C@H](O)CN)cn2)cc(N2CCO[C@@H](C)C2)n1 [compound 529, 4-[5-[(1S)-2-amino-1-hydroxyethyl]pyridin-2-yl]-3-[2-methyl-6-[(2S)-2-methylmorpholin-4-yl]pyridin-4-yl]oxybenzonitrile] in this work.
An IC50 of less than 10 nM was found for Cc1cc(Oc2cc(C#N)ccc2-c2ncc([C@H](O)CN)cn2)cc(N2CCO[C@@H](C)C2)n1 [compound 530, 4-[5-[(1S)-2-amino-1-hydroxyethyl]pyrimidin-2-yl]-3-[2-methyl-6-[(2S)-2-methylmorpholin-4-yl]pyridin-4-yl]oxybenzonitrile] in this work.
An IC50 of less than 10 nM was found for Cc1cc(Oc2cc(C#N)ccc2-c2ccc([C@H](O)CN)cn2)cc(N2CCOC(C)(C)C2)n1 [compound 531, 4-[5-[(1S)-2-amino-1-hydroxyethyl]pyridin-2-yl]-3-[2-(2,2-dimethylmorpholin-4-yl)-6-methylpyridin-4-yl]oxybenzonitrile] in this work.
An IC50 of less than 10 nM was found for Cc1cc(Oc2cc(C#N)ccc2-c2ncc([C@H](O)CN)cn2)cc(N2CCOC(C)(C)C2)n1 [compound 532, 4-[5-[(1S)-2-amino-1-hydroxyethyl]pyrimidin-2-yl]-3-[2-(2,2-dimethylmorpholin-4-yl)-6-methylpyridin-4-yl]oxybenzonitrile] in this work.
An IC50 of 10 to 1000 nM was found for N#Cc1ccc(-c2ncc(CN)cn2)c(Oc2cnnc(N3CCOCC3)c2)c1 [compound 534, 4-[5-(aminomethyl)pyrimidin-2-yl]-3-(6-morpholin-4-ylpyridazin-4-yl)oxybenzonitrile] in this work.
An IC50 greater than 1000 nM was found for N#Cc1ccc(-c2ncc(CN)cn2)c(Oc2cc(N3CCOCC3)cnn2)c1 [compound 535, 4-[5-(aminomethyl)pyrimidin-2-yl]-3-(5-morpholin-4-ylpyridazin-3-yl)oxybenzonitrile] in this work.
An IC50 of less than 10 nM was found for Cn1nc(-c2nccs2)cc1Oc1cc(C#N)ccc1-c1ccc([C@H](O)CN)cn1 [compound 536, 4-[5-[(1S)-2-amino-1-hydroxyethyl]pyridin-2-yl]-3-[2-methyl-5-(1,3-thiazol-2-yl)pyrazol-3-yl]oxybenzonitrile] in this work.
An IC50 greater than 1000 nM was found for Cc1cc(Oc2cc(C#N)ccc2-c2ccc(C3(O)CNC3)cn2)cc(N2CCOCC2)n1 [compound 537, 4-[5-(3-hydroxyazetidin-3-yl)pyridin-2-yl]-3-(2-methyl-6-morpholin-4-ylpyridin-4-yl)oxybenzonitrile] in this work.
An IC50 of 10 to 1000 nM was found for Cc1cc(Oc2cc(C#N)ccc2-c2ccc(C3(F)CNC3)cn2)cc(N2CCOCC2)n1 [compound 538, 4-[5-(3-fluoroazetidin-3-yl)pyridin-2-yl]-3-(2-methyl-6-morpholin-4-ylpyridin-4-yl)oxybenzonitrile] in this work.
An IC50 of 10 to 1000 nM was found for Cc1cc(Oc2cc(C#N)ccc2-c2ccc(C3OCCCC3N)cn2)cc(N2CCOCC2)n1 (stereo not shown) [compound 539, 4-[5-(3-aminooxan-2-yl)pyridin-2-yl]-3-(2-methyl-6-morpholin-4-ylpyridin-4-yl)oxybenzonitrile] in this work.
An IC50 greater than 1000 nM was found for Cn1nc(-c2ncccn2)cc1Oc1cc(C#N)ccc1-c1ccc([C@H](O)CN)cn1 [compound 540, 4-[5-[(1S)-2-amino-1-hydroxyethyl]pyridin-2-yl]-3-(2-methyl-5-pyrimidin-2-ylpyrazol-3-yl)oxybenzonitrile] in this work.
An IC50 of less than 10 nM was found for Cn1nc(N2CCCCC2)cc1Oc1cc(C#N)ccc1-c1ccc(CCN)cn1 [compound 541, 4-[5-(2-aminoethyl)pyridin-2-yl]-3-(2-methyl-5-piperidin-1-ylpyrazol-3-yl)oxybenzonitrile] in this work.
An IC50 of less than 10 nM was found for Cn1nc(N2CCCC2)cc1Oc1cc(C#N)ccc1-c1ccc(CCN)cn1 [compound 542, 4-[5-(2-aminoethyl)pyridin-2-yl]-3-(2-methyl-5-pyrrolidin-1-ylpyrazol-3-yl)oxybenzonitrile] in this work.
An IC50 of less than 10 nM was found for CN(C)c1cc(Oc2cc(C#N)ccc2-c2ccc(CCN)cn2)n(C)n1 [compound 543, 4-[5-(2-aminoethyl)pyridin-2-yl]-3-[5-(dimethylamino)-2-methylpyrazol-3-yl]oxybenzonitrile] in this work.
An IC50 of less than 10 nM was found for Cn1nc(N2CCCCC2)cc1Oc1cc(C#N)ccc1-c1ccc([C@H](O)CN)cn1 [compound 544, 4-[5-[(1S)-2-amino-1-hydroxyethyl]pyridin-2-yl]-3-(2-methyl-5-pipeddin-1-ylpyrazol-3-yl)oxybenzonitrile] in this work.
An IC50 of 10 to 1000 nM was found for Cn1nc(N2CCCC2)cc1Oc1cc(C#N)ccc1-c1ccc([C@H](O)CN)cn1 [compound 545, 4-[5-[(1S)-2-amino-1-hydroxyethyl]pyridin-2-yl]-3-(2-methyl-5-pyrrolidin-1-ylpyrazol-3-yl)oxybenzonitrile] in this work.
An IC50 of 10 to 1000 nM was found for CN(C)c1cc(Oc2cc(C#N)ccc2-c2ccc([C@H](O)CN)cn2)n(C)n1 [compound 546, 4-[5-[(1S)-2-amino-1-hydroxyethyl]pyridin-2-yl]-3-[5-(dimethylamino)-2-methylpyrazol-3-yl]oxybenzonitrile] in this work.
An IC50 of 10 to 1000 nM was found for CC(=O)Nc1cc(Oc2cc(C#N)ccc2-c2ccc(CCN)cn2)n(C)n1 [compound 547, N-[5-[2-[5-(2-aminoethyl)pyridin-2-yl]-5-cyanophenoxy]-1-methylpyrazol-3-yl]acetamide] in this work.
An IC50 greater than 1000 nM was found for CC(=O)Nc1cc(Oc2cc(C#N)ccc2-c2ccc([C@H](O)CN)cn2)n(C)n1 [compound 548, N-[5-[2-[5-[(1S)-2-amino-1-hydroxyethyl]pyridin-2-yl]-5-cyanophenoxy]-1-methylpyrazol-3-yl]acetamide] in this work.
An IC50 of 10 to 1000 nM was found for CC(C)Nc1cc(Oc2cc(C#N)ccc2-c2ccc([C@H](O)CN)cn2)n(C)n1 [compound 549, 4-[5-[(1S)-2-amino-1-hydroxyethyl]pyridin-2-yl]-3-[2-methyl-5-(propan-2-ylamino)pyrazol-3-yl]oxybenzonitrile] in this work.
An IC50 of less than 10 nM was found for Cc1cc(Oc2cc(C#N)ccc2-c2ccc([C@H](O)CN)cn2)cc(N2CCOC[C@H]2C)n1 [compound 550, 4-[5-[(1S)-2-amino-1-hydroxyethyl]pyridin-2-yl]-3-[2-methyl-6-[(3R)-3-methylmorpholin-4-yl]pyridin-4-yl]oxybenzonitrile] in this work.
An IC50 of 10 to 1000 nM was found for Cn1nc(C2CC2)cc1Oc1cc(C#N)ccc1-c1cc(C(=O)NCCN)ccn1 [compound 551, N-(2-aminoethyl)-2-[4-cyano-2-(5-cyclopropyl-2-methylpyrazol-3-yl)oxyphenyl]pyridine-4-carboxamide] in this work.
An IC50 greater than 1000 nM was found for Cn1nc(C2CC2)cc1Oc1cc(C#N)ccc1-c1cc(C(=O)N2CCNCC2)ccn1 [compound 552, 3-(5-cyclopropyl-2-methylpyrazol-3-yl)oxy-4-[4-(piperazine-1-carbonyl)pyridin-2-yl]benzonitrile] in this work.
An IC50 greater than 1000 nM was found for Cn1nc(C2CC2)cc1Oc1cc(C#N)ccc1-c1cc(C(=O)N2CCC(N)CC2)ccn1 [compound 553, 4-[4-(4-aminopiperidine-1-carbonyl)pyridin-2-yl]-3-(5-cyclopropyl-2-methylpyrazol-3-yl)oxybenzonitrile] in this work.
